Experimental data: patent US9868772B2 (INDIANA UNIVERSITY RESEARCH AND TECHNOLOGY CORPORATION, priority 2012, dated 2018)
Numbered stars: 1 amine (or outer) side, 2 acyl side, 3 side chain; on linkers, the order of the positions; unused ones are H or OH. Square brackets hold non-standard residues; d marks the D form. Side chains are listed from the residue outwards. Peptide text beside a SMILES is read from it. * marks the point of attachment. γGlu = O=C(O)[C@H](CCC(=O)[*:2])N[*:1]; Desaminohistidyl = O=C(CCc1c[nH]cn1)*; Desaminotyrosyl = O=C(CCc1ccc(O)cc1)*; Palmitoyl = CCCCCCCCCCCCCCCC(=O)*

Legend:
Test in all cases: cAMP induction, firefly luciferase reporter assay in HEK293 cells co-transfected with receptor
Type in all cases: cell-based
[1] = target: T1, glucagon receptor (Homo sapiens, UniProt P47871)
T1 construct: expressed in transfected cells; host or cells: HEK293
T1 sequence (P47871 26-477): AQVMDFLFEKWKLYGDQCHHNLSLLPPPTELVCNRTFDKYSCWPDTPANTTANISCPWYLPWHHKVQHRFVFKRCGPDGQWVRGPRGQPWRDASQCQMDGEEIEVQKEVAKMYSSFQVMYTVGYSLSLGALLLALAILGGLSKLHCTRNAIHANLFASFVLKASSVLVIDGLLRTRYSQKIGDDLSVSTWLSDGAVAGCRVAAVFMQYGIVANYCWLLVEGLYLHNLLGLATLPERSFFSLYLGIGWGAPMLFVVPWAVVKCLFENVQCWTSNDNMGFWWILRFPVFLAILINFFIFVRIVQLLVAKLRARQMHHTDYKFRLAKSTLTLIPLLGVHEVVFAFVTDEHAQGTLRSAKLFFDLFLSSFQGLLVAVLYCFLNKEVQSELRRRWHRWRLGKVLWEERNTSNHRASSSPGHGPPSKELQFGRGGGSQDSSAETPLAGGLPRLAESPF
Experimental: (§1) The ability of glucagon analogs to induce cAMP was measured in a firefly luciferase-based reporter assay. […] At the end of the incubation 100 microliters of LucLite luminescence substrate reagent (Perkin-Elmer, Wellesley, Mass.) were added to each well. […] Effective 50% concentrations were calculated by using Origin software (OriginLab, Northampton, Mass.

[2] = target: T2, GLP-1 receptor (Homo sapiens, UniProt P43220)
T2 construct: expressed in transfected cells; host or cells: HEK293
T2 sequence (P43220 24-463): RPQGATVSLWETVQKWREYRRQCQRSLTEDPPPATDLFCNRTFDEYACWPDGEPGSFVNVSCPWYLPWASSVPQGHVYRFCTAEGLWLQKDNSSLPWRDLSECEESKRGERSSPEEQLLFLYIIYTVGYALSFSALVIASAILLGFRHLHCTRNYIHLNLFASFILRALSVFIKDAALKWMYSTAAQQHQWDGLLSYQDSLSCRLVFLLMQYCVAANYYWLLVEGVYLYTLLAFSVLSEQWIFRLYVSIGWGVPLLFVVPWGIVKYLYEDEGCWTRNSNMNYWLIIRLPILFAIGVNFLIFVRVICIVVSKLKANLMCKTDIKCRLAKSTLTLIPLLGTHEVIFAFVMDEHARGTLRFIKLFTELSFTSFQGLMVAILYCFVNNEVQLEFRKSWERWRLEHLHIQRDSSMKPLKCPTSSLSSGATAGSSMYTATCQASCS
Experimental: as §1

[3] = target: T3, GIP receptor (Homo sapiens, UniProt P48546)
T3 construct: expressed in transfected cells; host or cells: HEK293
T3 sequence (P48546 22-466): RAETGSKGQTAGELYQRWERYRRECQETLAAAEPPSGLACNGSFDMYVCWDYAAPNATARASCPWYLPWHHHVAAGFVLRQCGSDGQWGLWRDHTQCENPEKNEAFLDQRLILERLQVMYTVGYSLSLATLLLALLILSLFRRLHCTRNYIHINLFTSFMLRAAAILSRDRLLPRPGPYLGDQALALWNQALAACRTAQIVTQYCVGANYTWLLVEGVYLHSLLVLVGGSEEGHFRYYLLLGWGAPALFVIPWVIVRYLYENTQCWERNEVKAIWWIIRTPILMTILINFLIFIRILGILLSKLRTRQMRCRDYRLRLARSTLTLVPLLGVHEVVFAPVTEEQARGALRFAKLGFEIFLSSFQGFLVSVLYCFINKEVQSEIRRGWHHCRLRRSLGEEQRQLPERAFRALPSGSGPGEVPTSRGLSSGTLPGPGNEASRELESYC
Experimental: as §1

[4] = Table 1, analogs of SEQ ID NO: 37
[5] = Table 2, analogs of SEQ ID NO: 10

Row | Compound | EC50 [1, 4] | EC50 [2, 4] | EC50 [3, 4] | EC50 [1, 5] | EC50 [2, 5] | EC50 [3, 5]
1 | CCCCCCCCCCCCCCCC(=O)N[C@@H](CCC(=O)NCCCC[C@H](NC(=O)[C@H](CC(=O)O)NC(=O)[C@H](CO)NC(=O)[C@@H](NC(=O)[C@H](Cc1ccccc1)NC(=O)[C@@H](NC(=O)CNC(=O)[C@H](CCC(N)=O)NC(=O)[C@H](C)NC(=O)CCc1ccc(O)cc1)[C@@H](C)O)[C@@H](C)O)C(=O)N[C@@H](CO)C(=O)N[C@@H](CCCCN)C(=O)N[C@@H](Cc1ccc(O)cc1)C(=O)N[C@@H](CC(C)C)C(=O)N[C@@H](CC(=O)O)C(=O)N[C@@H](CCC(=O)O)C(=O)N[C@@H](CCCNC(=N)N)C(=O)N[C@@H](C)C(=O)N[C@@H](C)C(=O)N[C@@H](CCC(N)=O)C(=O)N[C@@H](CC(=O)O)C(=O)N[C@@H](Cc1ccccc1)C(=O)N[C@H](C(=O)N[C@@H](CCC(N)=O)C(=O)N[C@@H](Cc1c[nH]c2ccccc12)C(=O)N[C@@H](CC(C)C)C(=O)N[C@@H](CC(C)C)C(=O)N[C@@H](CCC(=O)O)C(=O)NCC(=O)NCC(=O)N1CCC[C@H]1C(=O)N[C@@H](CO)C(=O)N[C@@H](CO)C(=O)NCC(=O)N[C@@H](C)C(=O)N1CCC[C@H]1C(=O)N1CCC[C@H]1C(=O)N1CCC[C@H]1C(=O)N[C@@H](CO)C(N)=O)C(C)C)C(=O)O [compound 11] (Desaminotyrosyl-AQGTFTSDK([γGlu-Palmitoyl])SKYLDERAAQDFVQWLLEGGPSSGAPPPS-NH2) | 0.016 nM | 0.002 nM | 0.002 nM |  |  | 
2 | CCCCCCCCCCCCCCCC(=O)N[C@@H](CCC(=O)NCCCC[C@H](NC(=O)[C@H](CC(=O)O)NC(=O)[C@H](CO)NC(=O)[C@@H](NC(=O)[C@H](Cc1ccccc1)NC(=O)[C@@H](NC(=O)CNC(=O)[C@H](CCC(N)=O)NC(=O)[C@H](C)NC(=O)[C@H](N)Cc1c[nH]cn1)[C@@H](C)O)[C@@H](C)O)C(=O)N[C@@H](CO)C(=O)N[C@@H](CCCCN)C(=O)N[C@@H](Cc1ccc(O)cc1)C(=O)N[C@@H](CC(C)C)C(=O)N[C@@H](CC(=O)O)C(=O)N[C@@H](CCC(=O)O)C(=O)N[C@@H](CCCNC(=N)N)C(=O)N[C@@H](C)C(=O)N[C@@H](C)C(=O)N[C@@H](CCC(N)=O)C(=O)N[C@@H](CC(=O)O)C(=O)N[C@@H](Cc1ccccc1)C(=O)N[C@H](C(=O)N[C@@H](CCC(N)=O)C(=O)N[C@@H](Cc1c[nH]c2ccccc12)C(=O)N[C@@H](CC(C)C)C(=O)N[C@@H](CC(C)C)C(=O)N[C@@H](CCC(=O)O)C(=O)NCC(=O)NCC(=O)N1CCC[C@H]1C(=O)N[C@@H](CO)C(=O)N[C@@H](CO)C(=O)NCC(=O)N[C@@H](C)C(=O)N1CCC[C@H]1C(=O)N1CCC[C@H]1C(=O)N1CCC[C@H]1C(=O)N[C@@H](CO)C(N)=O)C(C)C)C(=O)O [compound 16] | 0.01 nM | 0.002 nM | 0.01 nM |  |  | 
3 | CCCCCCCCCCCCCCCC(=O)N[C@@H](CCC(=O)NCCCC[C@H](NC(=O)[C@H](CC(=O)O)NC(=O)[C@H](CO)NC(=O)[C@@H](NC(=O)[C@H](Cc1ccccc1)NC(=O)[C@@H](NC(=O)CNC(=O)[C@H](CCC(N)=O)NC(=O)[C@H](C)NC(=O)CCc1c[nH]cn1)[C@@H](C)O)[C@@H](C)O)C(=O)N[C@@H](CO)C(=O)N[C@@H](CCCCN)C(=O)N[C@@H](Cc1ccc(O)cc1)C(=O)N[C@@H](CC(C)C)C(=O)N[C@@H](CC(=O)O)C(=O)N[C@@H](CCC(=O)O)C(=O)N[C@@H](CCCNC(=N)N)C(=O)N[C@@H](C)C(=O)N[C@@H](C)C(=O)N[C@@H](CCC(N)=O)C(=O)N[C@@H](CC(=O)O)C(=O)N[C@@H](Cc1ccccc1)C(=O)N[C@H](C(=O)N[C@@H](CCC(N)=O)C(=O)N[C@@H](Cc1c[nH]c2ccccc12)C(=O)N[C@@H](CC(C)C)C(=O)N[C@@H](CC(C)C)C(=O)N[C@@H](CCC(=O)O)C(=O)NCC(=O)NCC(=O)N1CCC[C@H]1C(=O)N[C@@H](CO)C(=O)N[C@@H](CO)C(=O)NCC(=O)N[C@@H](C)C(=O)N1CCC[C@H]1C(=O)N1CCC[C@H]1C(=O)N1CCC[C@H]1C(=O)N[C@@H](CO)C(N)=O)C(C)C)C(=O)O [compound 22] (Desaminohistidyl-AQGTFTSDK([γGlu-Palmitoyl])SKYLDERAAQDFVQWLLEGGPSSGAPPPS-NH2) | 0.017 nM | 0.003 nM | 0.041 nM |  |  | 
4 | CCCCCCCCCCCCCCCC(=O)N[C@@H](CCC(=O)N[C@@H](CCC(=O)NCCCC[C@H](NC(=O)[C@H](CO)NC(=O)[C@@H]1CCCN1C(=O)[C@@H]1CCCN1C(=O)[C@@H]1CCCN1C(=O)[C@H](C)NC(=O)CNC(=O)[C@H](CO)NC(=O)[C@H](CO)NC(=O)[C@@H]1CCCN1C(=O)CNC(=O)CNC(=O)[C@H](CCC(=O)O)NC(=O)[C@H](CC(C)C)NC(=O)[C@H](CC(C)C)NC(=O)[C@H](Cc1c[nH]c2ccccc12)NC(=O)[C@H](CCC(N)=O)NC(=O)[C@@H](NC(=O)[C@H](Cc1ccccc1)NC(=O)[C@H](CC(=O)O)NC(=O)[C@H](CCC(N)=O)NC(=O)[C@H](C)NC(=O)[C@H](C)NC(=O)[C@H](CCCNC(=N)N)NC(=O)[C@H](CCC(=O)O)NC(=O)[C@H](CC(=O)O)NC(=O)[C@H](CC(C)C)NC(=O)[C@H](Cc1ccc(O)cc1)NC(=O)[C@H](CCCCN)NC(=O)[C@H](CO)NC(=O)[C@H](Cc1ccc(O)cc1)NC(=O)[C@H](CC(=O)O)NC(=O)[C@H](CO)NC(=O)[C@@H](NC(=O)[C@H](Cc1ccccc1)NC(=O)[C@@H](NC(=O)CNC(=O)[C@H](CCC(N)=O)NC(=O)[C@H](C)NC(=O)CCc1ccc(O)cc1)[C@@H](C)O)[C@@H](C)O)C(C)C)C(=O)NCC(N)=O)C(=O)O)C(=O)O [compound 160] (Desaminotyrosyl-AQGTFTSDYSKYLDERAAQDFVQWLLEGGPSSGAPPPSK([γGlu-γGlu-Palmitoyl])G-NH2) |  |  |  | 0.049 nM | 0.022 nM | 0.086 nM
5 | Ac-[dY]AQGTFTSDYSKYLDERAAQDFVQWLLEGGPSSGAPPPSK([γGlu-γGlu-Palmitoyl])G-NH2 [compound 149] |  |  |  | 0.012 nM | 0.002 nM | 0.008 nM
6 | CCCCCCCCCCCCCCCC(=O)N[C@@H](CCC(=O)NCCCC[C@H](NC(=O)[C@H](CC(=O)O)NC(=O)[C@H](CO)NC(=O)[C@@H](NC(=O)[C@H](Cc1ccccc1)NC(=O)[C@@H](NC(=O)CNC(=O)[C@@H](CCC(N)=O)NC(=O)[C@H](C)NC(=O)[C@H](Cc1ccc(O)cc1)NC(C)=O)[C@@H](C)O)[C@@H](C)O)C(=O)N[C@@H](CO)C(=O)N[C@@H](CCCCN)C(=O)N[C@@H](Cc1ccc(O)cc1)C(=O)N[C@@H](CC(C)C)C(=O)N[C@@H](CC(=O)O)C(=O)N[C@@H](CCC(=O)O)C(=O)N[C@@H](CCCNC(=N)N)C(=O)N[C@@H](C)C(=O)N[C@@H](C)C(=O)N[C@@H](CCC(N)=O)C(=O)N[C@@H](CC(=O)O)C(=O)N[C@@H](Cc1ccccc1)C(=O)N[C@H](C(=O)N[C@@H](CCC(N)=O)C(=O)N[C@@H](Cc1c[nH]c2ccccc12)C(=O)N[C@@H](CC(C)C)C(=O)N[C@@H](CC(C)C)C(=O)N[C@@H](CCC(=O)O)C(=O)NCC(=O)NCC(=O)N1CCC[C@H]1C(=O)N[C@@H](CO)C(=O)N[C@@H](CO)C(=O)NCC(=O)N[C@@H](C)C(=O)N1CCC[C@H]1C(=O)N1CCC[C@H]1C(=O)N1CCC[C@H]1C(=O)N[C@@H](CO)C(N)=O)C(C)C)C(=O)O [compound 158] (Ac-YA[dQ]GTFTSDK([γGlu-Palmitoyl])SKYLDERAAQDFVQWLLEGGPSSGAPPPS-NH2) |  |  |  | 0.416 nM | 0.349 nM | 0.069 nM
7 | CCCCCCCCCCCCCCCC(=O)N[C@@H](CCC(=O)NCCCC[C@H](NC(=O)[C@H](CC(=O)O)NC(=O)[C@H](CO)NC(=O)[C@@H](NC(=O)[C@H](Cc1ccccc1)NC(=O)[C@@H](NC(=O)CNC(=O)[C@H](CCC(N)=O)NC(=O)CNC(=O)CCc1c[nH]cn1)[C@@H](C)O)[C@@H](C)O)C(=O)N[C@@H](CO)C(=O)N[C@@H](CCCCN)C(=O)N[C@@H](Cc1ccc(O)cc1)C(=O)N[C@@H](CC(C)C)C(=O)N[C@@H](CC(=O)O)C(=O)N[C@@H](CCC(=O)O)C(=O)N[C@@H](CCCNC(=N)N)C(=O)N[C@@H](C)C(=O)N[C@@H](C)C(=O)N[C@@H](CCC(N)=O)C(=O)N[C@@H](CC(=O)O)C(=O)N[C@@H](Cc1ccccc1)C(=O)N[C@H](C(=O)N[C@@H](CCC(N)=O)C(=O)N[C@@H](Cc1c[nH]c2ccccc12)C(=O)N[C@@H](CC(C)C)C(=O)N[C@@H](CC(C)C)C(=O)N[C@@H](CCC(=O)O)C(=O)NCC(=O)NCC(=O)N1CCC[C@H]1C(=O)N[C@@H](CO)C(=O)N[C@@H](CO)C(=O)NCC(=O)N[C@@H](C)C(=O)N1CCC[C@H]1C(=O)N1CCC[C@H]1C(=O)N1CCC[C@H]1C(=O)N[C@@H](CO)C(N)=O)C(C)C)C(=O)O [compound 31] (Desaminohistidyl-GQGTFTSDK([γGlu-Palmitoyl])SKYLDERAAQDFVQWLLEGGPSSGAPPPS-NH2) | 0.022 nM | 0.003 nM | 0.226 nM |  |  | 
